Results on 83 compounds are retold here after ChEMBL document CHEMBL3988442, “University of Dundee, Small-Polar-MMV Screening Library” (2021).

Some results are limits rather than exact numbers.

Assay [1] is described as follows: microbe, parasite or virus in culture. The settings on record: Mycobacterium tuberculosis, 72 h, read-out: pIC50 (converted).
The nature of assay [2]: microbe, parasite or virus in culture. The conditions noted are these: Mycobacterium tuberculosis, 96 h, read-out: pIC50 (converted).

In the case of `O=C1CCCN1Cc1nnc(SCc2ccc3c(c2)CCC3)o1`, the IC50 in assay [1] was 22 µM; in assay [2] it was 46.5 µM.

In the case of `N#Cc1ccc(OCCCN2CCNC(=O)C2)cc1`, the figures for the IC50 in assay [1] and in assay [2] were 233 µM and 290 µM, respectively.

Take `Cc1ccccc1N1CCN(c2cc(N(C)C)ncn2)C(C)C1` (stereo unspecified): the IC50 in assay [1] and in assay [2] was > 50.1 µM each time.

As to `COC(=O)c1ccc(N2CCC(N(C)c3ccccc3)CC2)nn1`, the IC50 in assay [1] was 37 µM; in assay [2], 12.3 µM.

On to `CC(C)COCC(O)Cn1nnc(-c2ccco2)n1` (stereo unspecified), for which the IC50 is 88.9 µM in assay [1] and 12.9 µM in assay [2].

In the case of `NCC1CCCN(c2ncccn2)C1` (stereo unspecified), the IC50 was 288 µM in assay [1] and > 501 µM in assay [2].

Take `CCC(CNS(=O)(=O)N(C)CC)c1ccccc1` (stereo unspecified): the IC50 in assay [1] was 249 µM; in assay [2], > 501 µM.

For `COc1ccc(Br)c(S(=O)(=O)N(C)C)c1`, the results for the IC50 in assay [1] and in assay [2] were 358 µM and > 501 µM, respectively.

As for `CCCc1ccc2oc(C(=O)N3CCN(CCOC)CC3)c(C)c2c1`, the results for the IC50 in assay [1] and in assay [2] were 4.94 µM and 4.11 µM, respectively.

Take `Cc1cc(NC(C)CN2CCOCC2)ncc1Br` (stereo unspecified): the IC50 was 420 µM in assay [1] and > 501 µM in assay [2].

Take `O=C(Nc1cccc(Cl)c1)C1CCCN1` (stereo unspecified): the IC50 in assay [1] is 147 µM; in assay [2], > 501 µM.

For `CC1=CC(=O)N(Cc2ccccc2)C1=O`, the IC50 in assay [1] was 49.8 µM; in assay [2] it was 81.5 µM.

As to `N#Cc1cccc(S(=O)(=O)N2CCCCC2CCN2CCCC2)c1` (stereo unspecified), the figures for the IC50 in assay [1] and in assay [2] were 14.3 µM and 8.72 µM, respectively.

As to `Cc1cc(C(=O)NCc2ccc(F)cc2)[nH]n1`, the IC50 was 28 µM in assay [1] and 132 µM in assay [2].

With `Cc1ccc(NCc2ncc[nH]2)c(F)c1`, the IC50 in assay [1] is 216 µM; in assay [2] it was > 501 µM.

Take `C=C(C)Cn1c(S(C)(=O)=O)nc2ccccc21`: the IC50 in assay [1] is 135 µM; in assay [2] it was > 501 µM.

In the case of `CCCSc1ccc(NC(=O)NCCN)cc1`, the IC50 in assay [1] is 187 µM; in assay [2] it was 233 µM.

With `Cc1ccc(C2CCCN2Cc2nc(-c3ccco3)no2)cc1` (stereo unspecified), the IC50 in assay [1] was 21.8 µM; in assay [2], 18.7 µM.

For `c1cnc(-c2nc(C3CCOC3)no2)cn1` (stereo unspecified), the IC50 in assay [1] and in assay [2] was > 50.1 µM in each case.

For `NCC(=O)N1CCCC(COc2ccc(F)cc2)C1` (stereo unspecified), the IC50 is 220 µM in assay [1] and > 501 µM in assay [2].

In the case of `CCCN1CCN(C(=O)COc2ccccc2)CC1`, the IC50 in assay [1] was 33.3 µM; in assay [2], 57.3 µM.

On to `COCCNc1ccc(C#N)cc1`, for which the values for the IC50 in assay [1] and in assay [2] were > 501 µM and 280 µM, respectively.

On to `COc1cccc2c1CCC2N` (stereo unspecified), for which the IC50 was 223 µM in assay [1] and > 501 µM in assay [2].

Regarding `COc1cccc2c1CCNCC2`, the IC50 was 271 µM in assay [1] and 348 µM in assay [2].

`COc1ccc(C(=O)Nc2nonc2NC(C)=O)cc1`: the IC50 in assay [1] was > 501 µM; in assay [2], 96.4 µM.

For `CC1c2ccsc2CCN1CCC(=O)NC(N)=O` (stereo unspecified), the IC50 in assay [1] was 78.1 µM; in assay [2], 128 µM.

For `NCc1ccc(Cl)cn1`, the IC50 was 324 µM in assay [1] and 249 µM in assay [2].

As for `CC(C)Nc1nc(N2CCCC2)nc2c1CN(C(C)C)CC2`, the IC50 in assay [1] is 26.5 µM; in assay [2] it was 15.8 µM.

For `CCOc1cccc(CNc2nc(N(C)C)n[nH]2)c1`, the results for the IC50 in assay [1] and in assay [2] were 57.4 µM and 34.2 µM, respectively.

As for `Nc1ncnc2[nH]c(N3CCCCC3)nc12`, the IC50 in assay [1] and in assay [2] was > 50.1 µM each time.

For `CC(C)Oc1cccc(C(O)CNC(=O)NCc2cccs2)c1` (stereo unspecified), the results for the IC50 in assay [1] and in assay [2] were > 50.1 µM and 30.8 µM, respectively.

Consider `O=C(NCC1(CO)CC1)OCc1ccccc1`, for which the IC50 in assay [1] and in assay [2] was 149 µM throughout.

On to `FC(F)Oc1cccc(N2CCNCC2)c1`, for which the IC50 in assay [1] was 147 µM; in assay [2], 347 µM.

As for `CNCC(=O)Nc1cc(Cl)c(OCCOC)c(Cl)c1`, the IC50 in assay [1] and in assay [2] was > 501 µM in each case.

For the compound `Cc1nn(C)cc1S(=O)(=O)NCC(c1ccccc1)N1CCCCCC1` (stereo unspecified), the IC50 in assay [1] and in assay [2] was > 50.1 µM throughout.

For the compound `CNS(=O)(=O)c1ccc(NCc2ccco2)cc1OC`, the IC50 in assay [1] was 437 µM; in assay [2], 245 µM.

As to `O=C(c1cc(C2CC2)[nH]n1)N1CCN(Cc2ccc3c(c2)OCO3)CC1`, the figures for the IC50 in assay [1] and in assay [2] were 9.81 µM and 10.3 µM, respectively.

On to `CCc1nnc(CN2CCOC3(CCCC3)C2)o1`, for which the IC50 in assay [1] and in assay [2] was > 501 µM in each case.

Take `CCOc1cccc(CN(C)S(=O)(=O)c2cccs2)n1`: the IC50 in assay [1] is 144 µM; in assay [2], 191 µM.

Take `Cc1ccccc1OCC1CCCN(c2cc(N)nc(N)n2)C1` (stereo unspecified): the IC50 in assay [1] was 35.7 µM; in assay [2] it was 30.1 µM.

For the compound `CCS(=O)(=O)NCCSc1nc2cc(F)c(F)cc2[nH]1`, the IC50 is 468 µM in assay [1] and 448 µM in assay [2].

As for `N#Cc1ccc(S(=O)(=O)NCCCN)cc1C(F)(F)F`, the IC50 in assay [1] is 205 µM; in assay [2], > 501 µM.

Consider `Oc1cccc(CNc2cccnc2-n2cccn2)c1`, for which the figures for the IC50 in assay [1] and in assay [2] were 222 µM and 74.1 µM, respectively.

With `CCOC(=O)C(C)Nc1ccc2c(c1)CCCC(=O)N2` (stereo unspecified), the IC50 in assay [1] and in assay [2] was > 501 µM throughout.

As for `CCCNC(=O)CSCc1nc(-c2ccccc2)no1`, the IC50 in assay [1] was 239 µM; in assay [2] it was 437 µM.

With `NCc1cc(N[C@H](CO)CC2CCCCC2)ncn1`, the IC50 was 296 µM in assay [1] and > 501 µM in assay [2].

Turning to `Cc1cc(C(=O)NCCCN(C)CC(F)(F)F)no1`, the IC50 in assay [1] and in assay [2] was > 501 µM in each case.

As to `O=C(Cn1cccn1)NCCc1ccc2c(c1)OCO2`, the values for the IC50 in assay [1] and in assay [2] were 251 µM and > 501 µM, respectively.

As for `CCSc1nc2ccccc2c(=O)n1CCCO`, the IC50 is 181 µM in assay [1] and 278 µM in assay [2].

In the case of `FC(F)(F)c1ccccc1CN1CCOC[C@H](Oc2cccnc2)C1`, the IC50 in assay [1] was 48 µM; in assay [2], 18.7 µM.

Turning to `O=C(CNC(=O)c1cccs1)c1ccccc1`, the IC50 in assay [1] and in assay [2] was > 501 µM in each case.

`Cc1cccc(CN2C[C@H]3CC[C@@H]2CN(Cc2[nH]cnc2C)C3)n1`: the IC50 in assay [1] and in assay [2] was > 50.1 µM throughout.

Regarding `COc1ccc(NC(=O)NC(C)(C)C(C)(C)O)cc1`, the figures for the IC50 in assay [1] and in assay [2] were 186 µM and > 501 µM, respectively.

Take `CCc1n[nH]c(SCC(=O)Nc2ccc(Br)cn2)n1`: the figures for the IC50 in assay [1] and in assay [2] were 144 µM and 186 µM, respectively.

Take `O=C(Cn1cnnn1)NCC1(c2ccccc2)CCC1`: the IC50 in assay [1] was 304 µM; in assay [2], > 501 µM.

Turning to `O=C(CNCC1CC1)Nc1ccccc1`, the IC50 was 171 µM in assay [1] and > 501 µM in assay [2].

`CCc1ccc(C(=O)CSc2nnc(N)[nH]2)cc1`: the IC50 in assay [1] is 176 µM; in assay [2], 449 µM.

Regarding `CCN1CCCC1CNC(=O)c1cccc(C)n1` (stereo unspecified), the IC50 in assay [1] and in assay [2] was > 501 µM each time.

With `COCCN(C)C(=O)Nc1cccc(Cl)c1`, the IC50 in assay [1] is > 501 µM; in assay [2], 282 µM.

Turning to `O=C(NCc1ccco1)Nc1nc2c(s1)COCC2`, the IC50 in assay [1] and in assay [2] was > 501 µM each time.

With `Cc1cc(S(=O)(=O)NC2CCS(=O)(=O)C2)c(C)s1` (stereo unspecified), the IC50 in assay [1] is 97.4 µM; in assay [2] it was 310 µM.

`CN1CCN(C(=O)c2cnsn2)c2ccccc21`: the IC50 in assay [1] and in assay [2] was > 501 µM each time.

Take `Cn1cc(CC(=O)Nc2ccc(I)cn2)cn1`: the IC50 in assay [1] was 283 µM; in assay [2], > 501 µM.

In the case of `COC(=O)NCCc1ccccc1OC`, the IC50 was 98.5 µM in assay [1] and > 501 µM in assay [2].

As to `Cc1nc(NC(C)C)nc2c1CN(Cc1cccs1)CC2`, the IC50 is > 50.1 µM in assay [1] and 27 µM in assay [2].

For `CCc1ccc2c(c1)[C@@H](N)CCO2`, the IC50 in assay [1] and in assay [2] was > 501 µM throughout.

As to `CCCn1nnc(NC(=O)COc2ccc(Cl)cc2)n1`, the IC50 is 237 µM in assay [1] and 272 µM in assay [2].

Take `CCOCCNC(=O)Nc1ccc(OCc2noc(C3CC3)n2)cc1`: the IC50 in assay [1] and in assay [2] was > 50.1 µM each time.

As for `Cc1ccc(NC(=O)NCCS(=O)(=O)N(C)C)cc1Cl`, the IC50 in assay [1] is 205 µM; in assay [2], 401 µM.

`N#Cc1nc(-c2ccccc2)oc1NCCCO`: the values for the IC50 in assay [1] and in assay [2] were 243 µM and > 501 µM, respectively.

For the compound `CC(C)C1CN(C(=O)c2ccccc2)CCS1` (stereo unspecified), the IC50 was 8.62 µM in assay [1] and 12.6 µM in assay [2].

With `CN1CCCCC1CC(=O)NCc1ccc(C#N)cc1` (stereo unspecified), the IC50 in assay [1] and in assay [2] was > 501 µM in each case.

`CC(C)n1nnnc1SCCS(=O)(=O)c1ccccc1`: the IC50 was 82.8 µM in assay [1] and 164 µM in assay [2].

With `COc1ccc(CN2C[C@H]3CN(C(=O)c4ccno4)CCN3C2=O)cc1`, the IC50 in assay [1] and in assay [2] was > 50.1 µM in each case.

For the compound `Cc1cc(CN2CCC(Oc3cccnc3)CC2)on1`, the IC50 in assay [1] and in assay [2] was > 501 µM in each case.

Consider `NS(=O)(=O)CC1CCN(c2ncc(Br)cn2)CC1`, for which the IC50 in assay [1] was 286 µM; in assay [2], 424 µM.

As for `CN1CCCN(C(=O)COc2cccc(Cl)c2)CC1`, the figures for the IC50 in assay [1] and in assay [2] were 283 µM and > 501 µM, respectively.

On to `CC(=O)c1c(F)cccc1N1CCOCC1`, for which the IC50 in assay [1] and in assay [2] was > 501 µM each time.

In the case of `CCC(c1nnc(SCC(=O)NCC(C)C)o1)N(C)C` (stereo unspecified), the figures for the IC50 in assay [1] and in assay [2] were 217 µM and 192 µM, respectively.

Regarding `CC(C)c1cc(C(=O)N[C@@H]2CCOC[C@H]2O)cs1`, the IC50 in assay [1] and in assay [2] was > 501 µM each time.

Take `O=C(CC1COc2ccccc2O1)N1CCOCC1` (stereo unspecified): the IC50 was 74.9 µM in assay [1] and 64 µM in assay [2].

Regarding `FC(F)(F)c1ccc(OC2CCNCC2)nc1`, the IC50 in assay [1] is 189 µM; in assay [2], 230 µM.

Consider `Cc1ccc(C(CN)N2CCCC2)o1` (stereo unspecified), for which the IC50 in assay [1] is 101 µM; in assay [2], > 501 µM.
